Measurements: patent US20110152183A1, “DERIVATISED HYBRID PEPTIDES OF AMYLIN AND SALMON CALCITONIN” (Novo Nordisk A/S, priority 2008, published 2011)
Peptide text beside a SMILES is read from it.

Biological target: T1, Amylin 3(a) receptor (human calcitonin receptor (CTa) + RAMP-3) (Homo sapiens, UniProt O60896+P30988)
T1 construct: expressed in transfected cells; host or cells: BHK570 (baby hamster kidney) cells, stably transfected, with a CRE-luciferase reporter
Test: Amylin luciferase assay (II), CRE luciferase reporter in BHK cells
Type: cell-based
Conditions: BHK Amylin 3(a)//CRE-luc cells, 4 hours incubation
From the text: It has previously been published (Poyner D R et al 2002, Pharmacological Reviews 54 (2) 233-246) that activation of Amylin receptors (coexpression of Calcitonin receptor and receptor activity modifying peptides RAMPs) by Amylin leads to an increase in the intracellular concentration of cAMP. Consequently, transcription is activated at promotors containing multiple copies of the cAMP response element (CRE). It is thus possible to measure Amylin activity by use of a CRE luciferase reporter gene introduced into BHK cells also expressing an Amylin receptor.
2. Construction of An Amylin 3(a)/CRE-Luc Cell Line
A BHK570 cell line stably transfected with the human calcitonin receptor (CTa) and a CRE-responsive luciferase reportergene. The cell line was further transfected with RAMP-3, using standard methods. This turns the Calcitonin receptor into an Amylin 3(a) receptor. Methotrexate, Neomycin, and Hygromycin are selection markers for luciferase, the Calcitonin receptor, and RAMP-3, respectively.
3. Amylin Luciferase Assay
To perform activity assays, BHK Amylin 3(a)//CRE-luc cells were seeded in white 96 well culture plates at a density of about 20.000 cells/well. […] Finally, luminescence was measured on a TopCounter (Packard) in SPC (single photon counting) mode.

T1 sequence (O60896 24-148): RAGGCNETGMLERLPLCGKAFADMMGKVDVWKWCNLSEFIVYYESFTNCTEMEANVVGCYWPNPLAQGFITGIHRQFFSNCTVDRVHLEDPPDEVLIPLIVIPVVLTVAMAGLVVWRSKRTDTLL
T1 sequence (P30988 25-474): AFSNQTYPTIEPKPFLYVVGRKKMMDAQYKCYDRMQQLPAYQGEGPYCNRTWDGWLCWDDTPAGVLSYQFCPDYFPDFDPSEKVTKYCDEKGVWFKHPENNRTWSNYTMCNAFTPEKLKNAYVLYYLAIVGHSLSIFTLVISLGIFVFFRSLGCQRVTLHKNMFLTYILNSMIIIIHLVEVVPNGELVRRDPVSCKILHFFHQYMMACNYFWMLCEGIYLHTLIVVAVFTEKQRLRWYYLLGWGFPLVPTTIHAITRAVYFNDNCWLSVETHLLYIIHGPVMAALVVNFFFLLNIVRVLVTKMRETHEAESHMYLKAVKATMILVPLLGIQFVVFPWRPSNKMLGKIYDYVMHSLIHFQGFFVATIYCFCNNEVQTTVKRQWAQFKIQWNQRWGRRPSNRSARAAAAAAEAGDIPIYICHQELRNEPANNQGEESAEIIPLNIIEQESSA

SMILES: CC(C)C[C@H](NC(=O)[C@H](C)NC(=O)[C@@H]1CSSC[C@H](NC(=O)[C@@H](N)CCCCN)C(=O)N[C@@H](CC(N)=O)C(=O)N[C@@H]([C@@H](C)O)C(=O)N[C@@H](C)C(=O)N[C@@H]([C@@H](C)O)C(=O)N1)C(=O)NCC(=O)N[C@@H](CCCNC(=N)N)C(=O)N[C@@H](CC(C)C)C(=O)N[C@@H](CO)C(=O)N[C@@H](CCC(N)=O)C(=O)N[C@@H](CCC(=O)O)C(=O)N[C@@H](CC(C)C)C(=O)N[C@@H](Cc1c[nH]cn1)C(=O)N[C@@H](CCCNC(=N)N)C(=O)N[C@@H](CC(C)C)C(=O)N[C@@H](CCC(N)=O)C(=O)N[C@H](C(=O)N[C@@H](Cc1ccc(O)cc1)C(=O)N1CCC[C@H]1C(=O)N[C@@H](CCCNC(=N)N)C(=O)N[C@H](C(=O)N[C@@H](CC(N)=O)C(=O)N[C@H](C(=O)NCC(=O)N[C@@H](CO)C(=O)N[C@@H](CC(N)=O)C(=O)N[C@H](C(=O)N[C@@H](Cc1ccc(O)cc1)C(N)=O)[C@@H](C)O)[C@@H](C)O)[C@@H](C)O)[C@@H](C)O [Example 4, Amylin (1-8)-[Arg11,Arg18]sCT (9-27)-amylin (33-37)] (HELM PEPTIDE1{K.C.N.T.A.T.C.A.L.G.R.L.S.Q.E.L.H.R.L.Q.T.Y.P.R.T.N.T.G.S.N.T.Y.[am]}$PEPTIDE1,PEPTIDE1,2:R3-7:R3$$$V2.0; N-terminus assumed)
- EC50: 3 pM
